Source: patent US20240425463A1, “PROCESS FOR MANUFACTURING A DIPHENYLPHRAZINE DERIVATIVE” (ACTELION PHARMACEUTICALS LTD, priority 2021, published 2024)
Where a name gives a salt, the structure may show the parent alone.

Assays:
[1] = Solubility in water / aqueous media and dissolution rate; type: physicochemical; settings: for solubility: water / aqueous media
[2] = Feasibility pK rat study (LAI potential of aqueous micro-suspensions, IM); type: in vivo; settings: 50 mg/kg, aqueous micro-suspension 125 mg/mL; for long-acting release profile (yes/no): citrate buffer pH 5, FIG. 9
Method: For this study, aqueous micro-suspensions of Selexipag, {4-[(5,6-diphenylpyrazin-2-yl)(propan-2-yl)amino]butoxy}acetic acid and calcium; {4-[(5,6-diphenylpyrazin-2-yl)(propan-2-yl)amino]butoxy}acetate were prepared. An overview of the design of the study can be found in Table 1.
Release profiles and mean AUC of the different formulations are depicted in FIG. 9.

[3] = tested on: pulmonary arterial hypertension; settings: phase III, patients with pulmonary arterial hypertension; cited from earlier work
[4] = Physical stability of solid form on storage (7 days, humidity); type: physicochemical
[5] = Hygroscopicity (change in mass between 0 and 90% RH); type: physicochemical
[6] = 7 days storage at 25° C./97% RH
[7] = 7 days storage at 40° C./75% RH

In the case of `CC(C)N(CCCCOCC(=O)O)c1cnc(-c2ccccc2)c(-c2ccccc2)n1` [Ca-salt of ACT-333679, calcium; {4-[(5,6-diphenylpyrazin-2-yl)(propan-2-yl)amino]butoxy}acetate], the solubility ([1]; listed as calcium salt of selexipag metabolite) is reported as “low solubility in water”, the solubility ([1]; {4-[(5,6-diphenylpyrazin-2-yl)(propan-2-yl)amino]butoxy}acetate) is reported as “low solubility in aqueous media” and the “duration of long-acting release profile” value ([2]; FIG. 9) is reported as “up to 336 hours”. For the same compound, the “time until which AUC increases” value ([2]; FIG. 9) was ≤ 720 h and the “plasma concentrations compared to both other groups” value ([2]; PVP K17 citrate buffer, FIG. 9) was “significant lower plasma concentrations”.
For `CC(C)N(CCCCOCC(=O)NS(C)(=O)=O)c1cnc(-c2ccccc2)c(-c2ccccc2)n1` [Selexipag, 2-{4-[(5,6-diphenylpyrazin-2-yl)(propan-2-yl)amino]butoxy}-N-(methanesulfonyl)acetamide], the dissolution rate [1] is listed as “high”, the solubility [1] is listed as “high” and the “risk of the primary composite end point of death or a complication related to pulmonary arterial hypertension vs placebo” value [3] is listed as “significantly lower”. The “long-acting release profile (yes/no)” value [2] was “did not demonstrate a long-acting release profile”.
With “calcium; {4-[(5,6-diphenylpyrazin-2-yl)(propan-2-yl)amino]butoxy}acetate [Form 2]” the “physical stability after storage” value [4, 6] was “physically stable”, the “physical stability after storage” value [4, 7] was “physically stable” and the hygroscopicity [5] was “slightly hygroscopic”. The “reversible change in mass” value ([5]; between 0 and 90% RH) was 2%.
With “Calcium; {4-[(5,6-diphenylpyrazin-2-yl)(propan-2-yl)amino]butoxy}acetate [Amorphous Form]” the “physical stability after storage” value [4, 6] was “physically stable” and the “physical stability after storage” value [4, 7] was “physically stable”.
With `CC(C)N(CCCCOCC(=O)O)c1cnc(-c2ccccc2)c(-c2ccccc2)n1` [Selexipag metabolite, 2-(4-((5,6-diphenylpyrazin-2-yl)(isopropyl)amino)butoxy)acetic acid] the dissolution rate [1] was “high”, the solubility [1] was “high” and the “long-acting release profile (yes/no)” value [2] was “did not demonstrate a long-acting release profile”.
